Source: article PMC7730549, “Design, Synthesis and Evaluation of New Bioactive Oxadiazole Derivatives as Anticancer Agents Targeting Bcl-2” (International Journal of Molecular Sciences, 2020)

Experiments:
[1] = test system: MDA-MB-231 (metastatic breast) cells; assay: MTT anti-proliferative assay, MDA-MB-231; format: cell-based, human; settings: Bcl-2 expressing, mean of three independent experiments ±SEM
Experimental: (§1) Evaluation of anti-proliferative activity for the new 2-(1H-indol-3-yl)-5-substituted-1,3,4-oxadiazoles (4a–m) was carried out in Bcl-2-expressing human metastatic breast (MDA-MB-231) and cervical (HeLa) cancer cell lines, using the MTT endpoint assay, following 72 h incubation of test compound, according to previously established protocols. Further analysis within the non-adherent leukemic cell lines KG1a (acute myelogenous leukemia, Bcl-2 +ve) and Jurkat (T-cell leukemia, Bcl-2 −ve,) was carried out by using the CellTiter-Blue® assay according to published precedent.
(§2) Human breast cancer (MDA-MB-231) and cervical cancer (HeLa) cells, obtained from the ATCC (Manassas, VA, USA), were cultured and maintained as previously described. For each experiment, 3000 cells in 0.2 mL of medium were seeded into each well of a clear flat-bottomed 96-well plate and allowed to adhere for 24 h. The cells were then incubated with the test compound (from 10 mM stock in DMSO), over a 10-fold dilution series, with concentrations ranging from 0.00001 to 100 μM and each diluent being performed in triplicate. Cells were incubated with the test compound for 72 h, followed by treatment with 3-[4,5-dimethylthiazol-2-yl]-2,5-diphenyl tetrazolium bromide (MTT) solution and reading of absorbance (automated microplate) according to our previous protocol. Mean IC50 values were obtained by using GraphPad Prism 5 software (San Diego, CA, USA). For each concentration, three independent repeat experiments were carried out to establish reproducibility.

HeLa (cervical) cells = assay: MTT anti-proliferative assay, HeLa; format: cell-based, human; settings: 72 h incubation, Bcl-2 expressing, mean of three independent experiments ±SEM
Experimental: as §1, §2

KG1a (AML) cells = assay: CellTiter-Blue cell viability assay, KG1a; format: cell-based, human; settings: CellTitre-Blue assay, 24 h incubation, Bcl-2 +ve, mean of three independent experiments ±SEM
Experimental: as §1
(§3) Human acute myeloid leukemia KG1a and acute T-cell lymphocytic Jurkat cells were cultured and maintained as previously described. For each experiment 15,000 cells in 0.1 mL of medium were seeded into each well of a solid-black fluorescence 96-well plate and incubated for 24 h. The cells were then incubated with test compound (from 10 mM stock in DMSO), over a 10-fold dilution series, with concentrations ranging from 0.00001 to 100 μM and each diluent being performed in triplicate. Cells were incubated with test compound for 24 h, followed by treatment with CellTiter-Blue® solution and reading of fluorescence according to our previous protocol. Mean IC50 values were obtained by using GraphPad Prism 5 software (San Diego, CA, USA). For each concentration, three independent repeat experiments were carried out, to establish reproducibility.

[2] = test system: Jurkat (T-cell leukemia) cells; assay: CellTiter-Blue cell viability assay, Jurkat; format: cell-based, human; settings: for IC50: CellTitre-Blue assay, 24 h incubation, Bcl-2 −ve, mean of three independent experiments ±SEM
Experimental: as §1, §3

His-tagged Bcl-2 protein = His-tagged Bcl-2 protein (Homo sapiens, UniProt P10415); assay: Competitive Bcl-2 ELISA binding assay (Bim peptide / His-tagged Bcl-2); settings: for IC50: competition with biotinylated Bim peptide for His-tagged Bcl-2, mean ± SEM of three independent experiments; for Bcl-2 binding activity in the ELISA assay: competitive ELISA, Bim peptide
Sequence of His-tagged Bcl-2 protein (P10415 whole entry, the tested form may be a part): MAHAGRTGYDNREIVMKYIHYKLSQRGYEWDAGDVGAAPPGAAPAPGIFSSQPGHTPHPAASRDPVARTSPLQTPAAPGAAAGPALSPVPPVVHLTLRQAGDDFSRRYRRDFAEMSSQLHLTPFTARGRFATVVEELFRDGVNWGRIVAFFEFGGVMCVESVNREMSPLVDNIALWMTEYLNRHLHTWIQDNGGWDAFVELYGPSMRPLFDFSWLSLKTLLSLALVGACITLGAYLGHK
Experimental: Compounds were evaluated according to their ability to compete with the pro-apoptotic BH3 domain Bim peptide for binding to His-tagged Bcl-2 protein, with a readout from anti-His secondary antibody conjugated to HRP (horseradish peroxidase) enzyme that produces a colorimetric readout in the presence of o-phenylenediamine (competitive ELISA assay).
The ELISA assay to determine the ability of test compounds (10-fold dilution series) to compete with the interaction between biotinylated Bim peptide and His-tagged Bcl-2 protein was carried out according to our previously published protocol. The addition of anti-His antibody containing horseradish peroxidase enzyme, followed by the addition of o-phenylenediamine and hydrogen peroxide, allowed for the determination of optical density, using a plate reader (450 nm). The experiments were carried out on three separate occasions, including both negative and positive controls. A plot of log μM concentration for each inhibitor against the percentage reduction in affinity for the Bim peptide was created, using non-linear regression curve analysis (GraphPad Prism 5, San Diego, CA, USA) and the software used to generate the IC50 value for the Bcl-2 inhibitor.

[3] = test system: Bcl-2 expressing cell lines (MDA-MB-231, HeLa and KG1a); assay: Anti-proliferative activity across Bcl-2 expressing cell lines (MDA-MB-231, HeLa, KG1a); format: cell-based; settings: Homo sapiens; MDA-MB-231, HeLa and KG1a taken together; read-out: IC50 values against Bcl-2 expressing cell lines
Experimental: as §1
Human breast cancer (MDA-MB-231) and cervical cancer (HeLa) cells, obtained from the ATCC (Manassas, VA, USA), were cultured and maintained as previously described. […] Cells were incubated with the test compound for 72 h, followed by treatment with 3-[4,5-dimethylthiazol-2-yl]-2,5-diphenyl tetrazolium bromide (MTT) solution and reading of absorbance (automated microplate) according to our previous protocol. […]
Human acute myeloid leukemia KG1a and acute T-cell lymphocytic Jurkat cells were cultured and maintained as previously described. For each experiment 15,000 cells in 0.1 mL of medium were seeded into each well of a solid-black fluorescence 96-well plate and incubated for 24 h. […]

[4] = Homo sapiens, MDA-MB-231, 72 h incubation

| Compound | IC50 ([1]; 72 h incubation) [µM] | IC50 (HeLa (cervical) cells) [nM] | IC50 (KG1a (AML) cells) [nM] | IC50 [2] [µM] | IC50 (His-tagged Bcl-2 protein) [nM] | IC50 [1, 4] [µM] | IC50 (HeLa (cervical) cells; Homo sapiens, HeLa) [nM] | IC50 (KG1a (AML) cells; Homo sapiens, KG-1a) [nM] | IC50 ([2]; Homo sapiens, Jurkat) [µM] | melting point [°C] | Bcl-2 binding activity in the ELISA assay (His-tagged Bcl-2 protein) | inhibitory effect in the Bcl-2 negative cell line ([2]; Jurkat, Bcl-2 negative) | binding potency relative to positive control gossypol (His-tagged Bcl-2 protein; Bcl-2 ELISA binding affinity assay) | IC50 [3] [nM] |
| --- | --- | --- | --- | --- | --- | --- | --- | --- | --- | --- | --- | --- | --- | --- |
| 2-(1H-Indol-3-yl)-5-(5-methoxy-1H-indol-2-yl)-1,3,4-oxadiazole [Compound 4m] | 1.79 ± 0.07 | 1190 ± 400 | 1870 ± 140 | 57.5 ± 0.58 | 840 ± 50 |  |  |  |  |  |  |  |  |  |
| Fc1ccc(OCc2nnc(-c3c[nH]c4ccccc34)o2)cc1 [Compound 4a, 2-(1H-Indol-3-yl)-5-(4-fluorophenoxymethyl)-1,3,4-oxadiazole] |  |  |  |  |  | 36.1 ± 3.4 | 12900 ± 1330 | > 100000 | > 100 | 210 to 212 |  |  |  |  |
| Cc1ccc(OCc2nnc(-c3c[nH]c4ccccc34)o2)cc1 [Compound 4b, 2-(1H-Indol-3-yl)-5-(4-methylphenoxymethyl)-1,3,4-oxadiazole] |  |  |  |  | > 100000 | 31.5 ± 4.8 | 13300 ± 320 | > 100000 | > 100 | 201 to 203 | inactive |  |  |  |
| CC(C)(C)c1ccc(OCc2nnc(-c3c[nH]c4ccccc34)o2)cc1 [Compound 4c, 2-(1H-Indol-3-yl)-5-(4-tert-butylphenoxymethyl)-1,3,4-oxadiazole] |  |  |  |  | 1170 ± 130 | 3.5 ± 0.16 | 900 ± 30 | 3450 ± 800 | > 100 | 218 to 220 |  |  |  |  |
| c1ccc(OCc2nnc(-c3c[nH]c4ccccc34)o2)cc1 [Compound 4d, 2-(1H-Indol-3-yl)-5-(phenoxymethyl)-1,3,4-oxadiazole] |  |  |  |  | 1410 ± 10 | 1.63 ± 0.08 | 570 ± 40 | 2560 ± 70 | > 100 | 195 to 197 |  |  |  |  |
| COc1cccc(Cc2nnc(-c3c[nH]c4ccccc34)o2)c1 [Compound 4e, 2-(1H-Indol-3-yl)-5-(3-methoxybenzyl)-1,3,4-oxadiazole] |  |  |  |  | 2720 ± 200 | 6.28 ± 0.2 | 3140 ± 140 | 3660 ± 150 | > 100 | 208 to 210 |  |  |  |  |
| c1ccc(Cc2nnc(-c3c[nH]c4ccccc34)o2)cc1 [Compound 4f, 2-(1H-Indol-3-yl)-5-benzyl-1,3,4-oxadiazole] |  |  |  |  |  | > 100 | > 100000 | > 100000 | > 100 | 187 to 189 |  |  |  |  |
| O=[N+]([O-])c1ccc(-c2nnc(-c3c[nH]c4ccccc34)o2)cc1 [Compound 4g, 2-(1H-Indol-3-yl)-5-(4-nitrophenyl)-1,3,4-oxadiazole] |  |  |  |  |  | 6.95 ± 0.5 | 1600 ± 120 | > 100000 | > 100 | 215 to 217 |  |  |  |  |
| COc1ccc(-c2nnc(-c3c[nH]c4ccccc34)o2)cc1 [Compound 4h, 2-(1H-Indol-3-yl)-5-(4-methoxyphenyl)-1,3,4-oxadiazole] |  |  |  |  |  | 6.02 ± 0.12 | 920 ± 80 | 2210 ± 100 | 60.59 ± 0.12 | 210 to 212 |  |  |  |  |
| COc1cc(-c2nnc(-c3c[nH]c4ccccc34)o2)cc(OC)c1OC [Compound 4i, 2-(1H-Indol-3-yl)-5-(3,4,5-trimethoxyphenyl)-1,3,4-oxadiazole] |  |  |  |  | 21000 ± 1090 | 1.19 ± 0.1 | 1220 ± 900 | 975 ± 20 | 12.2 ± 1.13 | 221 to 222 | only moderate Bcl-2 binding activity |  |  |  |
| FC(F)(F)c1ccc(-c2nnc(-c3c[nH]c4ccccc34)o2)cc1 [Compound 4j, 2-(1H-Indol-3-yl)-5-(4-trifluoromethylphenyl)-1,3,4-oxadiazole] |  |  |  |  | 330 ± 50 | 0.52 ± 0.15 | 880 ± 160 | 730 ± 90 | > 100 | 224 to 226 |  | no inhibitory effects | two-fold more potent | 520 to 880 |
| Cc1ccc(-c2nnc(-c3c[nH]c4ccccc34)o2)cc1 [Compound 4k, 2-(1H-Indol-3-yl)-5-(4-methylphenyl)-1,3,4-oxadiazole] |  |  |  |  | 430 ± 50 | 0.92 ± 0.19 | 1280 ± 350 | 1470 ± 130 | > 100 | 198 to 200 |  |  |  |  |
| c1ccc2c(-c3nnc(-c4ccc(N5CCCCC5)nc4)o3)c[nH]c2c1 [Compound 4l, 2-(1H-Indol-3-yl)-5-(6-(piperidin-1-yl)-pyridin-3-yl)-1,3,4-oxadiazole] |  |  |  |  |  | 2.97 ± 0.06 | 1520 ± 30 | 4500 ± 310 | 61.4 ± 1.4 | 240 to 242 |  |  |  |  |
